Tests used:
Assay type in all cases: cell-based, mouse
[1] = system: MC3T3 H1 osteoblasts; assay: Adhesion of MC3T3 H1 osteoblasts to V4A stainless steel shaped articles coated with acrylate peptide 3; settings: for maximum adhesion rates: V4A stainless steel
Protocol: For testing the cell adhesion of osteoblasts to peptide-coated metal surfaces, V4A stainless steel shaped articles (7×7×1 mm^3) were provided with three different coating variants and in each case then coated in turn with RGD peptides. To do this, first the stainless steel shaped articles were incubated in an ultrasonic bath at 60° C. for 15 min for the purpose of cleaning, rinsed with demineralized water, incubated in acetone for 30 min, rinsed again with demineralized water and incubated at 60° C. for 24 hours for drying.
The stainless steel platelets were then coated by means of three variants:
The Kevloc® primer solution was thinly applied and incubated at room temperature for 3 min. Then the Kevloc® bond solution was likewise thinly applied and activated in a kiln at 180° C. for 20 min.
Since this coating variant directly makes available free acrylate radicals on the metal surface, it was then possible to directly covalently couple the acrylate peptide 3, types iiia, as was described in Example 3 for polymerized PMMA-bone cement.
The Siliseal® solution was thinly applied and dried at room temperature for 5 min. Then the Sililink solution was likewise thinly applied and activated in the kiln at 320° C. for 3 min.
To make available acrylate radicals on the coated metal surfaces, the pretreated stainless steel shaped articles were immersed in demineralized water heated to 75° C., adjusted to pH about 8.00 using NaOH. A 1% 3-methacryloxypropyltrimethoxysilane solution (Huls AG, Germany) was then metered in with strirring over a period of one hour until a pH of about 6.50 was achieved. The mixture was then stirred at 75° C. for one hour; the pH at this time was about 6.35.
The bonding of acrylate peptide 3, type iiia, was carried out as described in Example 3 for polymerized PMMA bone cement.
For this, the stainless steel shaped articles were immersed in demineralized water heated to 75° C., adjusted to pH about 8.00 using NaOH, and an AlCl3 solution was metered in with stirring over a period of two hours. Then a 5% sodium silicate solution was likewise metered in with stirring over two hours. In the following step, a 1% 3-methacryloxypropyltrimethoxysilane solution (Huls AG, Germany) was metered in with stirring in the course of one hour. The mixture was then stirred at 75° C. for one hour; the pH was at this time about 6.40.
After the stainless steel shaped articles had been coated with acrylate peptide 3, type iiia, by means of three different processes, the adhesion of osteoblasts of the line MC3T3 H1 was investigated. To do this, a procedure as described in Example 3 was used.

[2] = system: MC3T3 H1 osteoblasts; assay: Proliferation of MC3T3 H1 osteoblasts on RGD peptide-coated PMMA bone cement shaped articles (WST-1 test)
Description: For the covalent coupling of acrylate peptide 3, type iiia, to polymerized PMMA bone cement shaped articles, a coating process which was described in Example 3 was selected.
MC3T3 H1 mouse osteoblasts were then adhered to these RGD peptide-coated bone cement shaped articles as likewise described in Example 3, but with two differences: 12,000 cells/cm^2 instead of 48,000 cells/cm^2 were inoculated and the adhesion time was two hours instead of one hour. Additionally, only three different peptide concentrations were investigated in the coating solution: 0.01 μM, 1 μM and 100 μM.
After washing off non-adherent cells, the MC3T3 H1 osteoblasts were cultured under 95% atmospheric humidity and 5% CO2 at 37° C. in serum-containing (10%) culture medium for a period of 15 days. During the course of this, the medium was changed twice per week and after 1, 2, 3, 4, 5, 10 and 15 days the cell count was determined by means of the WST-1 test by Boehringer Mannheim, Germany. In each case a typical exponential course of the cell proliferation of the cultured osteoblasts was seen here (FIG. 13). The maximally achieved cell count was directly dependent on the RGD peptide concentration in the coating solution. Thus after 15 culturing days per cm^2, about 1,000,000 cells (100 μM peptide), about 550,000 cells (1 μM peptide), about 300,000 cells (0.01 μM peptide) or about 230,000 cells were achieved (control without peptide). At the highest peptide concentration of 100 μM, an approximately 4- to 5-fold increase in the cell proliferation in comparison with uncoated samples was thus observed.

[3] = system: MC3T3 H1 osteoblasts; assay: Adhesion of MC3T3 H1 osteoblasts to PMMA bone cement shaped articles coated with cell-selective acrylate peptides; settings: for cell adhesion, calculated Abs (405 nm), osteoblasts: first part experiment
Description: The model used for material coating with RGD peptides of different cell selectivity to obtain implants having locally differentiated bioactive coating patterns which should stimulate the adhesion of different cell species was polymerized PMMA bone cement shaped articles. To these were covalently coupled two RGD peptides of different cell selectivity. In this case acrylate peptide 3, type iiia, having a selectivity for alphav beta3 -/alphav beta5 -integrin-bearing osteoblasts, and acrylate peptide 5, type iiia, having a selectivity for […] -positive platelets were bonded to the PMMA shaped articles as described for Example 3.
a. In the first part experiment, PMMA shaped articles were coated with the acrylate peptides 3 and 5 in concentrations in the coating solution of 100 μM, 10 μM and 1 μM in each case. These RGD peptide-coated materials were then inoculated in parallel with osteoblasts and platelets and their cell adhesion was determined.
MC3T3 H1 osteoblasts (350,000 cells/cm^2) and human platelets (50 million cells/cm^2) were in each case inoculated in parallel both onto acrylate peptide 3- and acrylate peptide 5-coated PMMA shaped articles and their cell adhesion was determined as described in Example 3.
b. In the second part experiment, PMMA shaped articles were likewise coated with the acrylate peptides 3 and 5, but only in a concentration in the coating solution of 100 μM in each case. These RGD peptide-coated materials were then inoculated in parallel with osteoblasts, platelets or an osteoblast/platelet mixture and their cell adhesion was determined. MC3T3 H1 osteoblasts (350,000 cells/cm^2), human platelets (50 million cell/cm^2) and a cell mixture (350,000 osteoblasts/cm^2 […] 50 million platelets/cm^2) were in each case inoculated in parallel both onto acrylate peptide 3- and acrylate peptide 5-coated PMMA shaped articles and their cell adhesion was determined as described in Example 3.

[4] = 1 μM peptide in the coating solution
[5] = 100 μM peptide in the coating solution

- EC50 ([1]; all three coating variants, read-out: half-maximal cell bindings, RGD peptide concentration in the coating solution): 0.001 to 0.1 µM
Substance: cyclo(RGDf[acrylic-ahx-tEG-K]) [acrylate peptide 3]
- maximum adhesion rates ([1]; Kevloc process): about 80%
- maximum adhesion rates ([1]; Silicoater process): about 80%
- maximum adhesion rates ([1]; pigment coating): about 60%
- cell count after 15 culturing days per cm^2 ([2]; 0.01 μM peptide in the coating solution): about 300,000 cells
- cell count after 15 culturing days per cm^2 [2, 4]: about 550,000 cells
- cell count after 15 culturing days per cm^2 [2, 5]: about 1,000,000 cells
- cell adhesion, calculated Abs (405 nm), osteoblasts [3, 4]: about 1.8 Abs
- cell adhesion, calculated Abs (405 nm), osteoblasts ([3]; 10 μM peptide in the coating solution): about 2.0 Abs
- cell adhesion, calculated Abs (405 nm), osteoblasts [3, 5]: about 6.0 Abs
- cell adhesion, Abs, osteoblasts alone ([3]; second part experiment, 100 μM peptide in the coating solution): about 6.0 Abs
